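Compound exposure: 48 hours, 5 concentrations, 96-well plates. At the GI50, growth is halved.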 Activity calls are given as the source filed them. Rule as the data show it: active = GI50 up to about 1.1 µM and inactive = higher.
What was measured:
Test in all cases: NCI-60 cell line screen, 48 h
NCI-H23 = tested on: NCI-H23
SN12C = tested on: SN12C
K562 = tested on: K562
OVCAR-3 = tested on: OVCAR-3
HCT-116 = tested on: HCT-116
DMS-273 = tested on: DMS-273
SW-620 = tested on: SW-620
UO-31 = tested on: UO-31
KM-20L2 = tested on: KM-20L2
NCI-H460 = tested on: NCI-H460
MOLT-4 = tested on: MOLT-4
SR = tested on: SR
SF-295 = tested on: SF-295
HOP-92 = tested on: HOP-92
A549 = tested on: A549
SNB-78 = tested on: SNB-78
SF-268 = tested on: SF-268
ACHN = tested on: ACHN
OVCAR-8 = tested on: OVCAR-8
EKVX = tested on: EKVX
SK-MEL-28 = tested on: SK-MEL-28
HCC 2998 = tested on: HCC 2998
HL-60 = tested on: HL-60
UACC-62 = tested on: UACC-62
RPMI-8226 = tested on: RPMI-8226
HCT-15 = tested on: HCT-15
786-0 = tested on: 786-0
SNB-75 = tested on: SNB-75
UACC-257 = tested on: UACC-257
SK-OV-3 = tested on: SK-OV-3
LXFL 529 = tested on: LXFL 529
CCRF-CEM = tested on: CCRF-CEM
SK-MEL-2 = tested on: SK-MEL-2
TK-10 = tested on: TK-10
COLO 205 = tested on: COLO 205
DLD-1 = tested on: DLD-1
OVCAR-4 = tested on: OVCAR-4
HT-29 = tested on: HT-29
KM12 = tested on: KM12
SF-539 = tested on: SF-539
A498 = tested on: A498
NCI-H522 = tested on: NCI-H522
NCI-H226 = tested on: NCI-H226
SK-MEL-5 = tested on: SK-MEL-5
CAKI-1 = tested on: CAKI-1
U-251 = tested on: U-251
M19-MEL = tested on: M19-MEL
HOP-62 = tested on: HOP-62
SNB-19 = tested on: SNB-19
LOX IMVI = tested on: LOX IMVI
IGROV-1 = tested on: IGROV-1
DMS-114 = tested on: DMS-114
OVCAR-5 = tested on: OVCAR-5
Malme-3M = tested on: Malme-3M
RXF 393 = tested on: RXF 393
M14 = tested on: M14

CC12N=NNC1C(=O)NC2=O (stereo unspecified)
GI50 (NCI-H23): > 100 µM (inactive)
GI50 (SN12C): > 100 µM (inactive)
GI50 (K562): > 100 µM (inactive)
GI50 (OVCAR-3): > 100 µM (inactive)
GI50 (HCT-116): > 100 µM (inactive)
GI50 (DMS-273): > 100 µM (inactive)
GI50 (SW-620): > 100 µM (inactive)
GI50 (UO-31): > 100 µM (inactive)
GI50 (KM-20L2): > 100 µM (inactive)
GI50 (NCI-H460): > 100 µM (inactive)
GI50 (MOLT-4): > 100 µM (inactive)
GI50 (SR): > 100 µM (inactive)
GI50 (SF-295): > 100 µM (inactive)
GI50 (HOP-92): > 100 µM (inactive)
GI50 (A549): > 100 µM (inactive)
GI50 (SNB-78): > 100 µM (inactive)
GI50 (SF-268): > 100 µM (inactive)
GI50 (ACHN): > 100 µM (inactive)
GI50 (OVCAR-8): > 100 µM (inactive)
GI50 (EKVX): > 100 µM (inactive)
GI50 (SK-MEL-28): > 100 µM (inactive)
GI50 (HCC 2998): > 100 µM (inactive)
GI50 (HL-60): > 100 µM (inactive)
GI50 (UACC-62): > 100 µM (inactive)
GI50 (RPMI-8226): > 100 µM (inactive)
GI50 (HCT-15): > 100 µM
GI50 (786-0): > 100 µM (inactive)
GI50 (SNB-75): > 100 µM (inactive)
GI50 (UACC-257): > 100 µM (inactive)
GI50 (SK-OV-3): > 100 µM (inactive)
GI50 (LXFL 529): > 100 µM (inactive)
GI50 (CCRF-CEM): > 100 µM (inactive)
GI50 (SK-MEL-2): > 100 µM (inactive)
GI50 (TK-10): > 100 µM (inactive)
GI50 (COLO 205): > 100 µM (inactive)
GI50 (DLD-1): > 100 µM (inactive)
GI50 (OVCAR-4): > 100 µM (inactive)
GI50 (HT-29): > 100 µM (inactive)
GI50 (KM12): > 100 µM (inactive)
GI50 (SF-539): > 100 µM (inactive)
GI50 (A498): 89.3 µM (inactive)
GI50 (NCI-H522): > 100 µM (inactive)
GI50 (NCI-H226): > 100 µM (inactive)
GI50 (SK-MEL-5): > 100 µM (inactive)
GI50 (CAKI-1): > 100 µM (inactive)
GI50 (U-251): > 100 µM (inactive)
GI50 (M19-MEL): > 100 µM (inactive)
GI50 (HOP-62): > 100 µM (inactive)
GI50 (SNB-19): > 100 µM (inactive)
GI50 (LOX IMVI): > 100 µM (inactive)
GI50 (IGROV-1): > 100 µM (inactive)
GI50 (DMS-114): > 100 µM (inactive)

CC1=NN(C(=O)c2ccc([N+](=O)[O-])cc2)C(=O)C1/N=N/c1ccccc1C(=O)O (stereo unspecified)
GI50 (OVCAR-5): > 100 µM (inactive)
GI50 (NCI-H23): > 100 µM (inactive)
GI50 (SN12C): > 100 µM (inactive)
GI50 (K562): 71.3 µM (inactive)
GI50 (OVCAR-3): > 100 µM (inactive)
GI50 (HCT-116): > 100 µM (inactive)
GI50 (DMS-273): > 100 µM (inactive)
GI50 (SW-620): > 100 µM (inactive)
GI50 (UO-31): > 100 µM (inactive)
GI50 (NCI-H460): > 100 µM (inactive)
GI50 (MOLT-4): > 100 µM (inactive)
GI50 (SR): > 10 µM (inactive)
GI50 (SF-295): > 100 µM (inactive)
GI50 (HOP-92): 45 µM (inactive)
GI50 (A549): > 100 µM (inactive)
GI50 (SNB-78): > 100 µM (inactive)
GI50 (SF-268): > 100 µM (inactive)
GI50 (ACHN): > 100 µM (inactive)
GI50 (OVCAR-8): > 100 µM (inactive)
GI50 (EKVX): > 100 µM (inactive)
GI50 (SK-MEL-28): > 100 µM (inactive)
GI50 (HCC 2998): > 100 µM (inactive)
GI50 (HL-60): 90.2 µM (inactive)
GI50 (UACC-62): 45 µM (inactive)
GI50 (RPMI-8226): > 100 µM (inactive)
GI50 (786-0): > 100 µM (inactive)
GI50 (SNB-75): 51.2 µM (inactive)
GI50 (UACC-257): > 100 µM (inactive)
GI50 (SK-OV-3): 53.6 µM (inactive)
GI50 (LXFL 529): > 100 µM (inactive)
GI50 (CCRF-CEM): 75 µM (inactive)
GI50 (Malme-3M): > 100 µM (inactive)
GI50 (SK-MEL-2): > 100 µM (inactive)
GI50 (TK-10): > 100 µM (inactive)
GI50 (RXF 393): > 100 µM (inactive)
GI50 (COLO 205): > 100 µM (inactive)
GI50 (DLD-1): > 100 µM (inactive)
GI50 (HT-29): > 100 µM (inactive)
GI50 (KM12): > 100 µM (inactive)
GI50 (SF-539): > 100 µM (inactive)
GI50 (A498): > 100 µM (inactive)
GI50 (NCI-H522): 79.4 µM (inactive)
GI50 (NCI-H226): 32.1 µM (inactive)
GI50 (SK-MEL-5): > 100 µM (inactive)
GI50 (CAKI-1): > 100 µM (inactive)
GI50 (U-251): 99.1 µM (inactive)
GI50 (M19-MEL): > 100 µM (inactive)
GI50 (SNB-19): > 100 µM (inactive)
GI50 (IGROV-1): > 100 µM (inactive)
GI50 (DMS-114): > 100 µM (inactive)

CCOC(=O)N1CCC(N[C@@H]2c3cc4c(cc3[C@@H](c3cc(OC)c(O)c(OC)c3)[C@H]3C(=O)OC[C@@H]32)OCO4)CC1
GI50 (NCI-H23): 0.527 µM (active)
GI50 (K562): 3.98 µM (inactive)
GI50 (OVCAR-3): 5.06 µM (inactive)
GI50 (HCT-116): 3.4 µM (inactive)
GI50 (SW-620): 2.58 µM (inactive)
GI50 (UO-31): 1.02 µM (active)
GI50 (NCI-H460): 0.065 µM (active)
GI50 (SF-295): 0.499 µM (active)
GI50 (HOP-92): 0.5 µM (active)
GI50 (SNB-78): 10.2 µM (inactive)
GI50 (SF-268): 3.5 µM (inactive)
GI50 (ACHN): 0.431 µM (active)
GI50 (OVCAR-8): 1.85 µM (inactive)
GI50 (EKVX): 2.69 µM (inactive)
GI50 (SK-MEL-28): 7.08 µM (inactive)
GI50 (UACC-62): 1.03 µM (active)
GI50 (HCT-15): 0.796 µM
GI50 (786-0): 1.15 µM (inactive)
GI50 (SNB-75): 2.67 µM (inactive)
GI50 (UACC-257): 5.16 µM (inactive)
GI50 (SK-OV-3): 0.8 µM (active)
GI50 (LXFL 529): 7.53 µM (inactive)
GI50 (CCRF-CEM): 0.697 µM (active)
GI50 (Malme-3M): 3.46 µM (inactive)
GI50 (SK-MEL-2): 5.81 µM (inactive)
GI50 (COLO 205): 4.3 µM (inactive)
GI50 (DLD-1): 5.21 µM (inactive)
GI50 (HT-29): 4.13 µM (inactive)
GI50 (KM12): 2.86 µM (inactive)
GI50 (SF-539): 1.23 µM (inactive)
GI50 (A498): 0.358 µM (active)
GI50 (M14): 1.7 µM (inactive)
GI50 (SK-MEL-5): 1.48 µM (inactive)
GI50 (CAKI-1): 0.478 µM (active)
GI50 (M19-MEL): 3.12 µM (inactive)
GI50 (HOP-62): 0.714 µM (active)
GI50 (SNB-19): 0.69 µM (active)
GI50 (LOX IMVI): 1.26 µM (inactive)
GI50 (IGROV-1): 2.9 µM (inactive)

Reference: ChEMBL document CHEMBL1201862, “PubChem BioAssay data set” (2004)
